Experimental findings from patent US20240285808A1, “MOLECULAR PROBES FOR IN VIVO DETECTION OF ALDEHYDES” (The General Hospital Corporation, priority 2021, published 2024) are described below.

The subject of test [1] is lung of SAMP8/SAMR1 mice with TAC. The experiment in a line: MR imaging of lung in transverse aortic constriction (TAC) model. The conditions noted are these: 20 min post injection. Format: in vivo, mouse. The text has this:
(§1) Combined Heart and Lung Fibrosis Model:
(§2) Left ventricular dysfunction with pulmonary hypertension was induced by left thoracotomy transverse aortic constriction surgery (TAC) in 6-month-old senescence-accelerated-prone/resistant mice (SAMP8/SAMR1), which is a well-established model of pressure overload-induced cardiac hypertrophy that can induce heart and lung fibrosis. The transverse aorta was encircled with 7-0 nylon suture and tied tightly around a pre-sterilized, blunt-end of a 27-gauge needle. After securing the knot, the needle was removed, and aortic flow resumed. Another two groups of SAMP8 and SAMR1 mice received sham surgery as control. 3-weeks post-surgery, mice were anesthetized with isoflurane (1.5%) and imaged at a 4.7 Tesla Bruker MRI scanner.
(§3) For combined heart and lung imaging, a series of baseline images (2D T1 weighted FLASH for heart and 3D-UTE for lung) were first acquired. 2D T1 weighted FLASH: repetition time/echo time=18.24/3.54 ms; flip angle, 50°; field of view, 36×36 mm^2; matrix size, 138×138 mm^2; slice thickness, 1 mm; acquisition time, 3 minutes 50 seconds. 3D-UTE: repetition time/echo time=4/0.01225 ms; flip angle, 16°; field of view, 32×32 mm^2; matrix size, 128×128 mm^2; slice thickness, 0.25 mm; acquisition time, 3 minutes 36 seconds. Then a bolus of Gd-9 complex was administered i.v. and imaging performed for a period of 40 min p.i. with the repetition acquisition of 2D T1 weighted FLASH and 3D-UTE sequences. Following the imaging session, animals were sacrificed and heart and lung tissue was subjected to histopathologic analysis.
For lung imaging analysis, RARE image, FLASH image pre-contrast and immediately post-contrast were used to define regions of interest (ROIs) in the lung that excluded vessels and airways. A total of 6 lung ROIs were defined on axial UTE images to obtain signal intensity (SI); ROIs in the dorsal muscle in each slice were also defined as reference; ROIs in the field of view without any tissue (air) were used to measure the variation in background signal. Then the lung-to muscle ratio (LMR) or contrast to noise ratio (CNR) was averaged from the 6 slices to calculate changes in LMR (ΔLMR) or CNR (ΔCNR) at each time point.

The test system of test [2] is myocardium of SAMP8/SAMR1 mice with TAC. The conditions noted are these: 20 min post injection.
Description: as §1, §2, §3
For heart imaging analysis, FLASH image pre-contrast and immediately post-contrast were used to define regions of interest (ROIs) in the myocardium that excluded blood vessels. The percentage of signal intensity change (% SI) was calculated by comparing the SI measured after probe injection to SI measured prior to probe injection.

Test [3] relates to liver of bile duct ligated (BDL) rats. The experiment in a line: MR imaging of liver in bile duct ligated rat liver fibrosis model. The conditions noted are these: for ΔCNR of liver: 30 min post injection. In kind it is in vivo. The method, then:
Rat Liver Fibrosis Model:
Liver fibrosis was induced in male Sprague Dawley rats (n=7) by ligation of the common bile duct (CD®, Charles River Labs, Wilmington, MA). Control animals (n=4) underwent a sham procedure. The BDL and sham rats were imaged 10 days following ligation with a dose of […] of Gd-9 based on body surface area.
T1-mapping was performed with a flow sensitive alternating inversion recovery (FAIR) sequence: repetition time/echo time=11000/33.8 ms; flip angle, 90°; inversion times: 100, 200, 400, 500, 600, 1000, 1500, 2000 ms; field of view, 60×60 mm^2; matrix size, 140×140; slice thickness, 2 mm; acquisition time, 3 minutes 34 seconds. T1 weighted imaging with 3D FLASH: repetition time/echo time=20/2.3 ms; flip angle, 30°; field of view, 60×60 mm^2; matrix size: 127×127; slice thickness, 0.5 mm; acquisition time, 3 minutes 10 seconds. Following the imaging session, animals were sacrificed (30 min p.i.) and liver tissue was subjected to histopathologic analysis.
Longitudinal relaxation rate (R1) maps were generated from the T1 mapping images using a custom written MATLAB (Mathworks, Natick, MA) program for voxel wise fitting of the inversion recovery signal intensities as a function of the inversion time. A region of interest (ROI) was manually traced encompassing the liver parenchyma while avoiding major blood vessels. ΔR1 was calculated by subtracting the R1Pre from R1Post, eq S3. ΔCNR were analyzed from 3D T1 weighted FLASH images, the same as that in mouse.

Molecules are shown by their SMILES. Where two headings read alike, the source gives them in different places.

As for `NN1CCN(C(=O)CCC(C(=O)[O-])N2CCN(CC(=O)[O-])CCN(CC(=O)[O-])CCN(C(CCC(=O)N3CCN(N)CC3)C(=O)[O-])CC2)CC1.[Gd+3]` (stereo not drawn) [Gd-9, cis-1,4-Gd-(CHyd)2], the ΔCNR of lung in test [1] (SAMP1-TAC) came to 1.2 ± 0.3; in test [1] (SAMP8-Sham) it was 0.8 ± 0.5; in test [1] (SAMP8-TAC), 3.1 ± 0.9; in test [1] (Sham), 0.4 ± 0.2. The “% SI change of myocardium” value is reported as 7.8 ± 4.7% in test [2] (SAMP1-Sham), 21.5 ± 8.4% in test [2] (SAMP1-TAC), 8.2 ± 5.3% in test [2] (SAMP8-Sham) and 22 ± 7.9% in test [2] (SAMP8-TAC). In addition, the “fold higher liver to muscle ΔCNR in BDL rats compared to sham rats” value in test [3] (30 min) was found to be 4 fold. Moreover, the “fold higher ΔR1 in BDL rats compared to sham rats” value in test [3] (30 min p.i.) is on record as 5 fold. The ΔCNR of liver in test [3] (BDL rats (n = 7)) was found to be 3.4±1.6; in test [3] (Sham rats (n = 4)), 0.6±0.2. Also, the “change of liver longitudinal relaxation rate ΔR1” value in test [3] (BDL rats, 30 min p.i.) is reported as 0.6±0.2; in test [3] (sham rats, 30 min p.i.), 0.1±0.03. This molecule also gave a ΔR1 in test [3] (rat model, in vivo imaging) of 0.6 s⁻¹.
